Literature values as cited in patent US20040167197A1, “Compositions, combinations, and methods for treating cardiovascular conditions and other associated conditions” (priority 2003, published 2004).

Test system: rat model of cardiac hypertrophy and dysfunction

In the case of COc1nccc(-c2c(-c3ccc(F)cc3)ncn2[C@H]2CC[C@H](O)CC2)n1 [trans-1-(4-hydroxycyclohexyl)-4-(4-fluorophenylmethoxypyridimidin-4-yl)imidazole], the hypertensive end-organ damage is listed as “protected against”, the “plasma tumor necrosis factor (TNF-α)” value is listed as “reduced” and the survival is listed as “improved”.
